Results reported in patent publication US10544099B2, “Inhibitors of indoleamine 2,3-dioxygenase and methods of their use” (BRISTOL-MYERS SQUIBB COMPANY, priority 2016, dated 2020).

The compounds below were run against T1, human IDO1 (Homo sapiens, UniProt P14902) (assay: HEK Human IDO-1 cell-based IDO inhibition assay). Conditions: human IDO1/HEK293 cells, 20 hours incubation, kynurenine absorbance at 490 nm; read-out: HEK Human IDO-1 Bio Activity.
T1 construct: expressed in transfected cells
T1 sequence (P14902 whole entry): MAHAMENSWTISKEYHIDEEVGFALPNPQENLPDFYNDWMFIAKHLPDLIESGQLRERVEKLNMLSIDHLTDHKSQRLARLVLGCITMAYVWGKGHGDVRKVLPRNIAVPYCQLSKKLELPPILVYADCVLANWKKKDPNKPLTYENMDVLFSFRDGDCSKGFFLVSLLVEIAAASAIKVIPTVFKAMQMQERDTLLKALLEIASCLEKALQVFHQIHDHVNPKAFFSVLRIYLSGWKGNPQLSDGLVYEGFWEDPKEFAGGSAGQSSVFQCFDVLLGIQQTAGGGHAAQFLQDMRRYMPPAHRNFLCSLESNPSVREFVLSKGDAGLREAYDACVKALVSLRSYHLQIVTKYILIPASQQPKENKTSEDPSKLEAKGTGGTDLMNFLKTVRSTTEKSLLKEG
Experimental: HEK293 cells were transfected with a pCDNA-based mammalian expression vector harboring human IDO1 cDNA (NM 002164.2) by electroporation. They were cultured in medium (DMEM with 10% FBS) containing 1 mg/ml G418 for two weeks. Clones of HEK293 cells that stably expressed human IDO1 protein were selected and expanded for IDO inhibition assay.
The human IDO1/HEK293 cells were seeded at 10,000 cells per 50 μL per well with RPMI/phenol red free media contains 10% FBS in a 384-well black wall clear bottom tissue culture plate (Matrix Technologies LLC) 100 nL of certain concentration of compound was then added to each well using ECHO liquid handling systems. The cells were incubated for 20 hours in 37° C. incubator with 5% CO2.
The compound treatments were stopped by adding trichloroacetic acid (Sigma-Aldrich) to a final concentration at 0.2%. The cell plate was further incubated at 50° C. for 30 minute. The equal volume supernatant (20 μL) and 0.2% (w/v) Ehrlich reagent (4-dimethylaminobenzaldehyde, Sigma-Aldrich) in glacial acetic acid were mixed in a new clear bottom 384-well plate. This plate was then incubated at room temperature for 30 minute. The absorbance at 490 nm was measured on Envision plate reader.
Compound IC50 values were calculated using the counts of 500 nM of a reference standard treatment as one hundred percent inhibition, and counts of no compound but DMSO treatment as zero percent inhibition.
`CC(NC(=O)Nc1ccc(Cl)cc1)C1CCN(c2ccnc3ccc(F)cc23)CC1` (racemic) [Example 1, (±)-1-(4-Chlorophenyl)-3-(1-(1-(6-fluoroquinolin-4-yl)piperidin-4-yl)ethyl)urea] gave an IC50 of under 2000 nM. `O=C(Nc1ccc(Cl)cc1)NC1CC12CCC(c1ccnc3ccc(F)cc13)CC2` (racemic) [Example 2, (±)-1-(4-chlorophenyl)-3-(6-(6-fluoroquinolin-4-yl)spiro [2.5]octan-1-yl)urea] was tested, and the IC50 was under 2000 nM. `CC[C@@H](NC(=O)Nc1ccc(Cl)cc1)[C@H]1CC[C@H](Oc2ccnc3ccccc23)CC1` (racemic) [Example 3, (±)-1-(4-chlorophenyl)-3-((R)-1-((trans)-4-(quinolin-4-yloxy)cyclohexyl)propyl)urea] showed an IC50 of under 50 nM. Work on `Cc1ccc(NC(=O)N[C@H](C)[C@H]2CC[C@@H](c3ccnc4ccc(F)cc43)CC2)cc1` [Example 4, 1-((R)-1-((1s,4s)-4-(6-Fluoroquinolin-4-yl)cyclohexyl)ethyl)-3-p-tolylurea] yielded an IC50 of under 50 nM. For `C[C@@H](NC(=O)Nc1ccc(Cl)cc1)[C@H]1CC[C@@H](c2ccnc3ccc(F)cc32)CC1` [Example 5, 1-(4-chlorophenyl)-3-((R)-1-((1s,4S)-4-(6-fluoroquinolin-4-yl)cyclohexyl)ethyl)urea], the IC50 was under 50 nM. For `CCOc1ccc(NC(=O)N[C@H](C)[C@H]2CC[C@@H](c3ccnc4ccc(F)cc43)CC2)cc1` [Example 6, 1-(4-ethoxyphenyl)-3-((R)-1-((1s,4S)-4-(6-fluoroquinolin-4-yl)cyclohexyl)ethyl)urea], the IC50 was under 50 nM. `Cc1ccc(NC(=O)N[C@H](C)[C@H]2CC[C@@H](c3ccnc4ccc(F)cc43)CC2)cc1Cl` [Example 7, 1-(3-chloro-4-methylphenyl)-3-((R)-1-((1s,4S)-4-(6-fluoroquinolin-4-yl)cyclohexyl)ethyl)urea] was tested, and the IC50 was under 50 nM. `C[C@@H](NC(=O)Nc1ccc(F)cc1)[C@H]1CC[C@@H](c2ccnc3ccc(F)cc32)CC1` [Example 8, 1-(4-fluorophenyl)-3-((R)-1-((1s,4S)-4-(6-fluoroquinolin-4-yl)cyclohexyl)ethyl)urea] showed an IC50 of under 50 nM. Work on `Cc1ccc(OC(=O)N[C@H](C)[C@H]2CC[C@@H](c3ccnc4ccc(F)cc43)CC2)cc1` [Example 9] yielded an IC50 of under 250 nM. In the case of `C[C@@H](NC(=O)Oc1ccc(F)cc1)[C@H]1CC[C@@H](c2ccnc3ccc(F)cc32)CC1` [Example 10, 4-fluorophenyl (R)-1-((1s,4S)-4-(6-fluoroquinolin-4-yl)cyclohexyl)ethylcarbamate], the IC50 is reported as under 250 nM. In the case of `COc1ccc(OC(=O)N[C@H](C)[C@H]2CC[C@@H](c3ccnc4ccc(F)cc43)CC2)cc1` [Example 11, 4-methoxyphenyl (R)-1-((1s,4S)-4-(6-fluoroquinolin-4-yl)cyclohexyl)ethylcarbamate], the IC50 is reported as under 50 nM.
